Measured values from the supplement of paper PMC10307832.

How the values were obtained:
Assay in all cases: relative viability (nuclei count vs DMSO), 5 days (fraction); higher = more cells survive
ABC-1 = tested on: ABC-1
In short: (§1)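 Cells from lung cancer lines were seeded into 1536-well plates and, one day later, dosed by pin tool. Treatments were either a single drug or a fixed dose of an anchor drug with five library-drug doses (not always all listed) in √10 steps. After 5 days, nuclei were stained in a one-step fixation (final 0.05% Triton X-100, 1% formaldehyde, 1 ug/ml Hoechst) and counted on 4× images, and relative viability is the treated-to-vehicle nuclei ratio, as the median of duplicate plates.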

CAL-12T = tested on: CAL-12T
In short: as §1

COR-L 105 = tested on: COR-L 105
In short: as §1

ChaGo-K-1 = tested on: ChaGo-K-1
In short: as §1

EMC-BAC-2 = tested on: EMC-BAC-2
In short: as §1

EPLC-272H = tested on: EPLC-272H
In short: as §1

HCC-15 = tested on: HCC-15
In short: as §1

HCC-78 = tested on: HCC-78
In short: as §1

HOP-62 = tested on: HOP-62
In short: as §1

LXF-289 = tested on: LXF-289
In short: as §1

NCI-H1666 = tested on: NCI-H1666
In short: as §1

NCI-H1755 = tested on: NCI-H1755
In short: as §1

NCI-H1915 = tested on: NCI-H1915
In short: as §1

NCI-H1975 = tested on: NCI-H1975
In short: as §1

NCI-H2023 = tested on: NCI-H2023
In short: as §1

NCI-H2085 = tested on: NCI-H2085
In short: as §1

NCI-H2126 = tested on: NCI-H2126
In short: as §1

NCI-H3122 = tested on: NCI-H3122
In short: as §1

NCI-H322M = tested on: NCI-H322M
In short: as §1

NCI-H358 = tested on: NCI-H358
In short: as §1

NCI-H441 = tested on: NCI-H441
In short: as §1

UMC-11 = tested on: UMC-11
In short: as §1

In the case of `Nc1ccn([C@@H]2O[C@H](CO)[C@@H](O)[C@@H]2O)c(=O)n1` [Cytarabine] + O=C(c1cc(Cc2n[nH]c(=O)c3ccccc23)ccc1F)N1CCN(C(=O)C2CC2)CC1 [Olaparib] (partner 8 µM), the relative viability (ABC-1; first compound 0.005 µM) is reported as 0.7, the relative viability (ABC-1; first compound 0.01581 µM) is reported as 0.756 and the relative viability (ABC-1; first compound 0.05 µM) is reported as 0.991. For the same molecule, the relative viability (ABC-1; first compound 0.1581 µM) was 0.672, the relative viability (ABC-1; first compound 0.5 µM) was 0.61 and the relative viability (CAL-12T; first compound 0.005 µM) was 0.859. The relative viability (CAL-12T; first compound 0.01581 µM) was 0.68, the relative viability (CAL-12T; first compound 0.05 µM) was 0.537 and the relative viability (CAL-12T; first compound 0.1581 µM) was 0.288. It also gave a relative viability (CAL-12T; first compound 0.5 µM) of 0.223, a relative viability (COR-L 105; first compound 0.005 µM) of 0.841 and a relative viability (COR-L 105; first compound 0.01581 µM) of 0.791. The relative viability (COR-L 105; first compound 0.05 µM) was 0.417, the relative viability (COR-L 105; first compound 0.1581 µM) was 0.469 and the relative viability (COR-L 105; first compound 0.5 µM) was 0.358. The relative viability (ChaGo-K-1; first compound 0.005 µM) was 0.414, the relative viability (ChaGo-K-1; first compound 0.01581 µM) was 0.417 and the relative viability (ChaGo-K-1; first compound 0.05 µM) was 0.32. The relative viability (ChaGo-K-1; first compound 0.1581 µM) was 0.238, the relative viability (ChaGo-K-1; first compound 0.5 µM) was 0.209 and the relative viability (EMC-BAC-2; first compound 0.005 µM) was 0.53. The relative viability (EMC-BAC-2; first compound 0.01581 µM) was 0.449, the relative viability (EMC-BAC-2; first compound 0.05 µM) was 0.369 and the relative viability (EMC-BAC-2; first compound 0.1581 µM) was 0.287. For the same molecule, the relative viability (EMC-BAC-2; first compound 0.5 µM) was 0.27, the relative viability (EPLC-272H; first compound 0.005 µM) was 0.476 and the relative viability (EPLC-272H; first compound 0.01581 µM) was 0.57. It also gave a relative viability (EPLC-272H; first compound 0.05 µM) of 0.607, a relative viability (EPLC-272H; first compound 0.1581 µM) of 0.244 and a relative viability (EPLC-272H; first compound 0.5 µM) of 0.123. It also gave a relative viability (HCC-15; first compound 0.005 µM) of 0.706, a relative viability (HCC-15; first compound 0.01581 µM) of 0.655 and a relative viability (HCC-15; first compound 0.05 µM) of 0.841. For the same molecule, the relative viability (HCC-15; first compound 0.1581 µM) was 0.649, the relative viability (HCC-15; first compound 0.5 µM) was 0.539 and the relative viability (HCC-78; first compound 0.005 µM) was 0.906. For the same molecule, the relative viability (HCC-78; first compound 0.01581 µM) was 0.849, the relative viability (HCC-78; first compound 0.05 µM) was 0.583 and the relative viability (HCC-78; first compound 0.1581 µM) was 0.419. The relative viability (HCC-78; first compound 0.5 µM) was 0.278, the relative viability (HOP-62; first compound 0.005 µM) was 0.436 and the relative viability (HOP-62; first compound 0.01581 µM) was 0.338. For the same molecule, the relative viability (HOP-62; first compound 0.05 µM) was 0.253, the relative viability (HOP-62; first compound 0.1581 µM) was 0.13 and the relative viability (HOP-62; first compound 0.5 µM) was 0.0414. For the same molecule, the relative viability (LXF-289; first compound 0.005 µM) was 0.904, the relative viability (LXF-289; first compound 0.01581 µM) was 0.829 and the relative viability (LXF-289; first compound 0.05 µM) was 0.709. The relative viability (LXF-289; first compound 0.1581 µM) was 0.285, the relative viability (LXF-289; first compound 0.5 µM) was 0.232 and the relative viability (NCI-H1666; first compound 0.005 µM) was 0.675. The relative viability (NCI-H1666; first compound 0.01581 µM) was 0.754, the relative viability (NCI-H1666; first compound 0.05 µM) was 0.694 and the relative viability (NCI-H1666; first compound 0.1581 µM) was 0.613. For the same molecule, the relative viability (NCI-H1666; first compound 0.5 µM) was 0.684, the relative viability (NCI-H1755; first compound 0.005 µM) was 0.893 and the relative viability (NCI-H1755; first compound 0.01581 µM) was 0.889. The relative viability (NCI-H1755; first compound 0.05 µM) was 0.584, the relative viability (NCI-H1755; first compound 0.1581 µM) was 0.398 and the relative viability (NCI-H1755; first compound 0.5 µM) was 0.342. The relative viability (NCI-H1915; first compound 0.005 µM) was 0.288, the relative viability (NCI-H1915; first compound 0.01581 µM) was 0.253 and the relative viability (NCI-H1915; first compound 0.05 µM) was 0.261. The relative viability (NCI-H1915; first compound 0.1581 µM) was 0.24, the relative viability (NCI-H1915; first compound 0.5 µM) was 0.212 and the relative viability (NCI-H1975; first compound 0.005 µM) was 0.671. It also gave a relative viability (NCI-H1975; first compound 0.01581 µM) of 0.871, a relative viability (NCI-H1975; first compound 0.05 µM) of 0.561 and a relative viability (NCI-H1975; first compound 0.1581 µM) of 0.429. For the same molecule, the relative viability (NCI-H1975; first compound 0.5 µM) was 0.253, the relative viability (NCI-H2023; first compound 0.005 µM) was 0.382 and the relative viability (NCI-H2023; first compound 0.01581 µM) was 0.276. The relative viability (NCI-H2023; first compound 0.05 µM) was 0.236, the relative viability (NCI-H2023; first compound 0.1581 µM) was 0.0812 and the relative viability (NCI-H2023; first compound 0.5 µM) was 0.0898. The relative viability (NCI-H2085; first compound 0.005 µM) was 0.718, the relative viability (NCI-H2085; first compound 0.01581 µM) was 0.727 and the relative viability (NCI-H2085; first compound 0.05 µM) was 0.802. For the same molecule, the relative viability (NCI-H2085; first compound 0.1581 µM) was 0.655, the relative viability (NCI-H2085; first compound 0.5 µM) was 0.61 and the relative viability (NCI-H2126; first compound 0.005 µM) was 0.923. For the same molecule, the relative viability (NCI-H2126; first compound 0.01581 µM) was 0.907, the relative viability (NCI-H2126; first compound 0.05 µM) was 0.673 and the relative viability (NCI-H2126; first compound 0.1581 µM) was 0.534. The relative viability (NCI-H2126; first compound 0.5 µM) was 0.515, the relative viability (NCI-H3122; first compound 0.005 µM) was 0.545 and the relative viability (NCI-H3122; first compound 0.01581 µM) was 0.658. It also gave a relative viability (NCI-H3122; first compound 0.05 µM) of 0.585, a relative viability (NCI-H3122; first compound 0.1581 µM) of 0.389 and a relative viability (NCI-H3122; first compound 0.5 µM) of 0.304. For the same molecule, the relative viability (NCI-H322M; first compound 0.005 µM) was 0.773, the relative viability (NCI-H322M; first compound 0.01581 µM) was 0.695 and the relative viability (NCI-H322M; first compound 0.05 µM) was 0.467. The relative viability (NCI-H322M; first compound 0.1581 µM) was 0.469, the relative viability (NCI-H322M; first compound 0.5 µM) was 0.351 and the relative viability (NCI-H358; first compound 0.005 µM) was 0.443. The relative viability (NCI-H358; first compound 0.01581 µM) was 0.491, the relative viability (NCI-H358; first compound 0.05 µM) was 0.379 and the relative viability (NCI-H358; first compound 0.1581 µM) was 0.145. For the same molecule, the relative viability (NCI-H358; first compound 0.5 µM) was 0.115, the relative viability (NCI-H441; first compound 0.005 µM) was 0.451 and the relative viability (NCI-H441; first compound 0.01581 µM) was 0.48. It also gave a relative viability (NCI-H441; first compound 0.05 µM) of 0.375, a relative viability (NCI-H441; first compound 0.1581 µM) of 0.354 and a relative viability (NCI-H441; first compound 0.5 µM) of 0.175. It also gave a relative viability (UMC-11; first compound 0.005 µM) of 0.345, a relative viability (UMC-11; first compound 0.01581 µM) of 0.329 and a relative viability (UMC-11; first compound 0.05 µM) of 0.302. It also gave a relative viability (UMC-11; first compound 0.1581 µM) of 0.248 and a relative viability (UMC-11; first compound 0.5 µM) of 0.218.
